Laboratory results taken from patent US10221171B2, “Oxathiazole thiazolium Hsp 70 inhibitors” (THE REGENTS OF THE UNIVERSITY OF CALIFORNIA, priority 2015, dated 2019).
Where two headings read alike, the source gives them in different places.

Tests used:
Type in all cases: cell-based
MEF (C57BL/6) = experiment: MTT cell viability assay, MEF (C57BL/6); settings: Mus musculus
Method: (§1) Cells were then treated with compound at various concentrations in 0.2 mL media. After the 72-hour incubation period, cells were washed in PBS (3×100 μL), and 10 μL MTT reagent was added with 100 μL fresh media. Cells were then incubated for 4 hr in a humidified chamber at 37° C. with 5% CO2. Insoluble formazan crystals were solubilized by addition of 0.1 mL detergent solution (4 hr at room temp., dark). Resulting colored solutions were then quantified at an absorbance of 570 nm.

MCF-7 = experiment: MTT cell viability assay, MCF-7; settings: Homo sapiens, MTT, 72-hour incubation, read-out: IC50/μM MCF-7
Method: as §1

MDA-MB-231 = experiment: MTT cell viability assay, MDA-MB-231; settings: Homo sapiens
Method: as §1

[1] = MTT, 72-hour incubation, read-out: IC50/μM MEF (C57BL/6)
[2] = 72 h, read-out: IC50/μM MEF (C57BL/6), MTT, 72-hour incubation
[3] = MDA-MB-231, 72 h, 72-hour incubation

Row | IC50 (MCF-7; MCF7) [µM] | IC50 (MDA-MB-231; MDA-MB-231, 72-hour incubation) [µM] | SMILES | IC50 (MEF (C57BL/6); [1]) [µM] | IC50 (MEF (C57BL/6); [2]) [µM] | IC50 (MCF-7; MCF7, 72 h) [µM] | IC50 (MDA-MB-231; [3]) [µM]
1 | 0.14 ± 0.02 | 0.23 ± 0.02 | CCn1c(=O)/c(=C2\Sc3cc(C(C)C)ccc3N2C)s/c1=C\c1scc[n+]1Cc1ccc(C(F)(F)F)o1 [JG-328] | 0.7 ± 0.03 | – | – | –
2 | 0.58 ± 0.1 | 0.39 ± 0.06 | CCn1c(=O)/c(=C2\Sc3cc(Cl)ccc3N2C)s/c1=C\c1scc[n+]1Cc1ccccc1CO [JG-329] | 7.3 ± 2.1 | – | – | –
3 | 1.08 ± 0.14 | 1.93 ± 0.27 | CCn1c(=O)/c(=C2\Sc3cc(F)ccc3N2C)s/c1=C\c1scc[n+]1Cc1ccccc1CO [JG-330] | > 10 | – | – | –
4 | – | – | CCn1c(=O)/c(=C2\Sc3cc(Cl)ccc3N2C)s/c1=C\c1scc[n+]1Cc1ccccc1C(=O)OC [JG-331] | – | 2.9 ± 0.1 | 0.17 ± 0.02 | 0.17 ± 0.02
5 | 0.22 ± 0.03 | 0.26 ± 0.03 | CCn1c(=O)/c(=C2\Sc3cc(F)ccc3N2C)s/c1=C\c1scc[n+]1Cc1ccccc1C(=O)OC [JG-332] | 2 ± 0.1 | – | – | –
6 | 0.35 ± 0.04 | 0.19 ± 0.02 | CCn1c(=O)/c(=C2\Sc3cc(Cl)ccc3N2C)s/c1=C\c1scc[n+]1Cc1c(C)cccc1C [JG-333] | 1.1 ± 0.1 | – | – | –
7 | 0.32 ± 0.03 | 0.38 ± 0.04 | CCn1c(=O)/c(=C2\Sc3cc(F)ccc3N2C)s/c1=C\c1scc[n+]1Cc1c(C)cccc1C [JG-334] | 1.4 ± 0.1 | – | – | –
8 | 0.14 ± 0.02 | 0.11 ± 0.01 | CCn1c(=O)/c(=C2\Sc3cc(Cl)ccc3N2C)s/c1=C\c1scc[n+]1[C@@H](C)c1ccccc1 [JG-335] | 1.4 ± 0.1 | – | – | –
9 | 0.18 ± 0.02 | 0.21 ± 0.02 | CCn1c(=O)/c(=C2\Sc3cc(F)ccc3N2C)s/c1=C\c1scc[n+]1[C@@H](C)c1ccccc1 [JG-336] | 2.2 ± 0.1 | – | – | –
10 | – | – | CCn1c(=O)/c(=C2\Sc3cc(Cl)ccc3N2C)s/c1=C\c1scc[n+]1Cc1c(Cl)cccc1Cl [JG-337] | – | 1.4 ± 0.1 | 0.16 ± 0.01 | 0.16 ± 0.01
11 | 0.17 ± 0.02 | 0.14 ± 0.01 | CCn1c(=O)/c(=C2\Sc3cc(F)ccc3N2C)s/c1=C\c1scc[n+]1Cc1c(Cl)cccc1Cl [JG-338] | 1 ± 0.03 | – | – | –
12 | 0.37 ± 0.04 | 0.19 ± 0.02 | CCn1c(=O)/c(=C2\Sc3cc(Cl)ccc3N2C)s/c1=C\c1scc[n+]1[C@H](C)c1ccccc1 [JG-339] | 1.5 ± 0.08 | – | – | –
13 | 0.24 ± 0.03 | 0.38 ± 0.03 | CCn1c(=O)/c(=C2\Sc3cc(F)ccc3N2C)s/c1=C\c1scc[n+]1[C@H](C)c1ccccc1 [JG-340] | 1.5 ± 0.05 | – | – | –
14 | 0.15 ± 0.01 | 0.11 ± 0.01 | C=CCn1c(=O)/c(=C2\Sc3cc(C)ccc3N2C)s/c1=C\c1scc[n+]1Cc1ccccc1 [JG-341] | 1.6 ± 0.1 | – | – | –
15 | 0.22 ± 0.02 | 0.25 ± 0.01 | CCc1ccc2c(c1)S/C(=c1/s/c(=C\c3scc[n+]3Cc3c(C)cccc3C)n(CC)c1=O)N2C [JG-343] | 0.64 ± 0.01 | – | – | –
16 | 0.087 ± 0.007 | 0.17 ± 0.01 | CCc1ccc2c(c1)S/C(=c1/s/c(=C\c3scc[n+]3Cc3ccccc3SC(F)(F)F)n(CC)c1=O)N2C [JG-344] | 0.46 ± 0.03 | – | – | –
17 | 0.11 ± 0.01 | 0.073 ± 0.007 | CCc1ccc2c(c1)S/C(=c1/s/c(=C\c3scc[n+]3Cc3ccccc3OC)n(CC)c1=O)N2C [JG-346] | 0.71 ± 0.03 | – | – | –
18 | 0.095 ± 0.008 | 0.21 ± 0.01 | CCc1ccc2c(c1)S/C(=c1/s/c(=C\c3scc[n+]3Cc3cc(C)sc3C)n(CC)c1=O)N2C [JG-347] | 0.6 ± 0.01 | – | – | –
19 | 0.1 ± 0.01 | 0.1 ± 0.01 | CCn1c(=O)/c(=C2\Sc3cc(OC)ccc3N2C)s/c1=C\c1scc[n+]1Cc1c(Cl)cccc1Cl [JG-348] | 1.1 ± 0.1 | – | – | –
20 | 0.12 ± 0.01 | 0.23 ± 0.01 | CCn1c(=O)/c(=C2\Sc3cc(OC)ccc3N2C)s/c1=C\c1scc[n+]1Cc1c(C)cccc1C [JG-349] | 1.1 ± 0.1 | – | – | –
21 | 0.059 ± 0.007 | 0.1 ± 0.01 | CCn1c(=O)/c(=C2\Sc3cc(OC)ccc3N2C)s/c1=C\c1scc[n+]1Cc1ccccc1SC(F)(F)F [JG-350] | 1.2 ± 0.1 | – | – | –
22 | 0.14 ± 0.01 | 0.11 ± 0.01 | CCn1c(=O)/c(=C2\Sc3cc(OC)ccc3N2C)s/c1=C\c1scc[n+]1Cc1ccccc1C(=O)OC [JG-351] | 1.6 ± 0.1 | – | – | –
23 | – | – | CCn1c(=O)/c(=C2\Sc3cc(OC)ccc3N2C)s/c1=C\c1scc[n+]1Cc1ccccc1OC [JG-352] | – | 0.77 ± 0.03 | 0.076 ± 0.005 | 0.062 ± 0.006
24 | 0.15 ± 0.01 | 0.15 ± 0.01 | CCn1c(=O)/c(=C2\Sc3cc(OC)ccc3N2C)s/c1=C\c1scc[n+]1Cc1cc(C)sc1C [JG-353] | 1.1 ± 0.1 | – | – | –
25 | 0.13 ± 0.01 | 0.096 ± 0.01 | CCn1c(=O)/c(=C2\Sc3cc(SC)ccc3N2C)s/c1=C\c1scc[n+]1Cc1c(Cl)cccc1Cl [JG-354] | 1.1 ± 0.1 | – | – | –

Row | SMILES | IC50 (MCF-7; MCF7) [µM] | IC50 (MDA-MB-231; MDA-MB-231, 72-hour incubation) [µM] | IC50 (MEF (C57BL/6); [1]) [µM] | IC50 (MEF (C57BL/6); [2]) [µM] | IC50 (MCF-7; MCF7, 72 h) [µM] | IC50 (MDA-MB-231; [3]) [µM]
26 | CCc1ccc2c(c1)S/C(=c1/s/c(=C\c3scc[n+]3Cc3c(Cl)cccc3Cl)n(CC)c1=O)N2C [JG-342] | – | 0.1 ± 0.01 | 0.3 ± 0.1 | – | 0.093 ± 0.007 | –
